Species: Rattus norvegicus
Assay: DrugMatrix - Regimen: Daily Repeat
Format: toxicity, organism-based, Sprague-Dawley
Set-up: regimen Daily Repeat, gender Male, age 6-8 weeks
Details: in vivo, po, route oral GAVAGE, vehicle .5 % CMC; for ABSOLUTE BASOPHIL / ABSOLUTE EOSINOPHIL / ABSOLUTE LYMPHOCYTE / ABSOLUTE MONOCYTE / ABSOLUTE SEGMENTED NEUTROPHIL / BASOPHIL / EOSINOPHIL / ERYTHROCYTE COUNT / HEMATOCRIT / HEMOGLOBIN / LEUKOCYTE COUNT / LYMPHOCYTE / MEAN CORPUSCULAR HEMOGLOBIN / MEAN CORPUSCULAR HEMOGLOBIN CONCENTRATION / MEAN CORPUSCULAR VOLUME / MONOCYTE / NEUTROPHIL / NUCLEATED RED BLOOD CELLS / PLATELET COUNT: tissue Blood; for ALANINE AMINOTRANSFERASE / ALBUMIN / ALKALINE PHOSPHATASE / ASPARTATE AMINOTRANSFERASE / BLOOD UREA NITROGEN / CARBON DIOXIDE / CHLORIDE / CHOLESTEROL / CREATINE PHOSPHOKINASE / CREATININE / GLUCOSE / LACTATE DEHYDROGENASE / LIPASE / PHOSPHORUS / POTASSIUM / SODIUM / TOTAL BILIRUBIN / TOTAL PROTEIN / URIC ACID: tissue Plasma
[1] = 150 mg/kg, 120 h, dose level Low, time 5 day
[2] = 1500 mg/kg, 72 h, dose level High, time 3 day
[3] = 1500 mg/kg, 120 h, dose level High, time 5 day

Compound: C[C@]1(Cn2ccnn2)[C@H](C(=O)O)N2C(=O)C[C@H]2S1(=O)=O [TAZOBACTAM]
- ABSOLUTE BASOPHIL [1]: 0 CELLS/uL
- ABSOLUTE EOSINOPHIL [1]: 96 CELLS/uL
- ABSOLUTE LYMPHOCYTE [1]: 12730.67 CELLS/uL
- ABSOLUTE MONOCYTE [1]: 0 CELLS/uL
- ABSOLUTE SEGMENTED NEUTROPHIL [1]: 1940 CELLS/uL
- BASOPHIL [1]: 0%
- EOSINOPHIL [1]: 0.67%
- ERYTHROCYTE COUNT [1]: 5.47 x10E6/uL
- HEMATOCRIT [1]: 33.33%
- HEMOGLOBIN [1]: 12.73 G/DL
- LEUKOCYTE COUNT [1]: 14.77 x10E3/uL
- LYMPHOCYTE [1]: 86%
- MEAN CORPUSCULAR HEMOGLOBIN [1]: 23.3 pg
- MEAN CORPUSCULAR HEMOGLOBIN CONCENTRATION [1]: 38.2 G/DL
- MEAN CORPUSCULAR VOLUME [1]: 60.97 fL
- MONOCYTE [1]: 0%
- NEUTROPHIL [1]: 13.33%
- NUCLEATED RED BLOOD CELLS [1]: 0 /100WBC
- PLATELET COUNT [1]: 1082 x10E3/uL
- ALANINE AMINOTRANSFERASE [1]: 60.67 u/L
- ALBUMIN [1]: 4.2 G/DL
- ALKALINE PHOSPHATASE [1]: 333 u/L
- ASPARTATE AMINOTRANSFERASE [1]: 84 u/L
- BLOOD UREA NITROGEN [1]: 17.33 mg/dL
- CARBON DIOXIDE [1]: 23.33 mmol/L
- CHLORIDE [1]: 104.33 MEQ/L
- CHOLESTEROL [1]: 76.67 mg/dL
- CREATINE PHOSPHOKINASE [1]: 277 u/L
- CREATININE [1]: 0.21 mg/dL
- GLUCOSE [1]: 141.33 mg/dL
- LACTATE DEHYDROGENASE [1]: 295.67 u/L
- LIPASE [1]: 9 u/L
- PHOSPHORUS [1]: 13.07 mg/dL
- POTASSIUM [1]: 6.29 MEQ/L
- SODIUM [1]: 144.97 MEQ/L
- TOTAL BILIRUBIN [1]: 0.17 mg/dL
- TOTAL PROTEIN [1]: 5.8 G/DL
- URIC ACID [1]: 1.83 mg/dL
- ABSOLUTE BASOPHIL [2]: 0 CELLS/uL
- ABSOLUTE EOSINOPHIL [2]: 240.33 CELLS/uL
- ABSOLUTE LYMPHOCYTE [2]: 12544 CELLS/uL
- ABSOLUTE MONOCYTE [2]: 44.33 CELLS/uL
- ABSOLUTE SEGMENTED NEUTROPHIL [2]: 838 CELLS/uL
- BASOPHIL [2]: 0%
- EOSINOPHIL [2]: 1.67%
- ERYTHROCYTE COUNT [2]: 5.29 x10E6/uL
- HEMATOCRIT [2]: 33.47%
- HEMOGLOBIN [2]: 12.83 G/DL
- LEUKOCYTE COUNT [2]: 13.67 x10E3/uL
- LYMPHOCYTE [2]: 91.67%
- MEAN CORPUSCULAR HEMOGLOBIN [2]: 24.23 pg
- MEAN CORPUSCULAR HEMOGLOBIN CONCENTRATION [2]: 38.33 G/DL
- MEAN CORPUSCULAR VOLUME [2]: 63.23 fL
- MONOCYTE [2]: 0.33%
- NEUTROPHIL [2]: 6.33%
- NUCLEATED RED BLOOD CELLS [2]: 0 /100WBC
- PLATELET COUNT [2]: 1291.33 x10E3/uL
- ALANINE AMINOTRANSFERASE [2]: 65.33 u/L
- ALBUMIN [2]: 4.1 G/DL
- ALKALINE PHOSPHATASE [2]: 447.33 u/L
- ASPARTATE AMINOTRANSFERASE [2]: 89 u/L
- BLOOD UREA NITROGEN [2]: 15.67 mg/dL
- CARBON DIOXIDE [2]: 27.33 mmol/L
- CHLORIDE [2]: 102.67 MEQ/L
- CHOLESTEROL [2]: 73.33 mg/dL
- CREATINE PHOSPHOKINASE [2]: 209.33 u/L
- CREATININE [2]: 0.18 mg/dL
- GLUCOSE [2]: 161.67 mg/dL
- LACTATE DEHYDROGENASE [2]: 102 u/L
- LIPASE [2]: 9 u/L
- PHOSPHORUS [2]: 13.27 mg/dL
- POTASSIUM [2]: 6.83 MEQ/L
- SODIUM [2]: 146.53 MEQ/L
- TOTAL BILIRUBIN [2]: 0.17 mg/dL
- TOTAL PROTEIN [2]: 5.63 G/DL
- URIC ACID [2]: 1.73 mg/dL
- ABSOLUTE BASOPHIL [3]: 0 CELLS/uL
- ABSOLUTE EOSINOPHIL [3]: 130.33 CELLS/uL
- ABSOLUTE LYMPHOCYTE [3]: 11683.33 CELLS/uL
- ABSOLUTE MONOCYTE [3]: 0 CELLS/uL
- ABSOLUTE SEGMENTED NEUTROPHIL [3]: 1019.67 CELLS/uL
- BASOPHIL [3]: 0%
- EOSINOPHIL [3]: 1%
- ERYTHROCYTE COUNT [3]: 5.74 x10E6/uL
- HEMATOCRIT [3]: 36.23%
- HEMOGLOBIN [3]: 13.93 G/DL
- LEUKOCYTE COUNT [3]: 12.83 x10E3/uL
- LYMPHOCYTE [3]: 91%
- MEAN CORPUSCULAR HEMOGLOBIN [3]: 24.47 pg
- MEAN CORPUSCULAR HEMOGLOBIN CONCENTRATION [3]: 38.5 G/DL
- MEAN CORPUSCULAR VOLUME [3]: 63.5 fL
- MONOCYTE [3]: 0%
- NEUTROPHIL [3]: 8%
- NUCLEATED RED BLOOD CELLS [3]: 0 /100WBC
- PLATELET COUNT [3]: 1185.67 x10E3/uL
- ALANINE AMINOTRANSFERASE [3]: 58.67 u/L
- ALBUMIN [3]: 4.4 G/DL
- ALKALINE PHOSPHATASE [3]: 302 u/L
- ASPARTATE AMINOTRANSFERASE [3]: 76 u/L
- BLOOD UREA NITROGEN [3]: 18.33 mg/dL
- CARBON DIOXIDE [3]: 27 mmol/L
- CHLORIDE [3]: 104 MEQ/L
- CHOLESTEROL [3]: 62.67 mg/dL
- CREATINE PHOSPHOKINASE [3]: 174 u/L
- CREATININE [3]: 0.22 mg/dL
- GLUCOSE [3]: 170 mg/dL
- LACTATE DEHYDROGENASE [3]: 115.67 u/L
- LIPASE [3]: 9 u/L
- PHOSPHORUS [3]: 12.83 mg/dL
- POTASSIUM [3]: 6.45 MEQ/L
- SODIUM [3]: 148.17 MEQ/L
- TOTAL BILIRUBIN [3]: 0.2 mg/dL
- TOTAL PROTEIN [3]: 6.2 G/DL
- URIC ACID [3]: 1.8 mg/dL

Reference: ChEMBL document CHEMBL3885881, “DrugMatrix”
